Assay results: publication PMC6812009, “Covalent Aurora A regulation by the metabolic integrator coenzyme A” (Redox Biology, 2019)

What was measured:
Assay in all cases: Kinase profiling screen (radioactive filter-binding assay)
Type in all cases: biochemical
TTK = target: T1, TTK (Homo sapiens, UniProt P33981); conditions: 100 μM compound, 20 μM ATP; read-out: Kinase activity, % of activity in the absence of inhibitor
T1 sequence (P33981 1-857): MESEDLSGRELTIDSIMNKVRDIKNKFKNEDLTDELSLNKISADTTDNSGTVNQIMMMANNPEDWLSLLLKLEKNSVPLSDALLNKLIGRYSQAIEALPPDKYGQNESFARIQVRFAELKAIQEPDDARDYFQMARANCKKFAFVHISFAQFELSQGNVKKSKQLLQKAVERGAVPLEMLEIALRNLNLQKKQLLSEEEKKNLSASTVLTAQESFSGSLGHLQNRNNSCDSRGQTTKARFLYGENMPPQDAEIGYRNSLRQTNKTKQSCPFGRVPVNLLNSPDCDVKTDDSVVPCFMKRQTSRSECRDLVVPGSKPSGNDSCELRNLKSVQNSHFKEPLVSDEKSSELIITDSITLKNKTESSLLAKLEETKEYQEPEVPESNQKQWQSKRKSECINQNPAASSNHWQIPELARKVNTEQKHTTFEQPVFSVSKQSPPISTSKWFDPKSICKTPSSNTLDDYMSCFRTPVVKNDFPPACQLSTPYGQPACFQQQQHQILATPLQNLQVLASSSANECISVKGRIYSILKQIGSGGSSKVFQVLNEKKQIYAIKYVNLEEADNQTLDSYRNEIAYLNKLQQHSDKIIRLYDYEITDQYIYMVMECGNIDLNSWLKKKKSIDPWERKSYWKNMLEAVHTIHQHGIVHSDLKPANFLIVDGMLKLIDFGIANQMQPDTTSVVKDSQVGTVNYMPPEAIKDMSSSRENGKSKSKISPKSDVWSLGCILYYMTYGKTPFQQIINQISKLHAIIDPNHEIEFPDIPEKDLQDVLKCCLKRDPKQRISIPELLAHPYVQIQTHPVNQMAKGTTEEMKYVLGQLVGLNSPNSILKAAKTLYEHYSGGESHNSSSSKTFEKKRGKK
How it was run: (§1)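 Single-point in vitro screen: 100 μM final of CoA, dpCoA and ADP, run in duplicate against recombinant kinase with a model substrate and optimal ATP.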

MST2 = target: T2, MST2 (Homo sapiens, UniProt Q13188); conditions: 100 μM compound, 20 μM ATP; read-out: Kinase activity, % of activity in the absence of inhibitor
T2 sequence (Q13188 1-491): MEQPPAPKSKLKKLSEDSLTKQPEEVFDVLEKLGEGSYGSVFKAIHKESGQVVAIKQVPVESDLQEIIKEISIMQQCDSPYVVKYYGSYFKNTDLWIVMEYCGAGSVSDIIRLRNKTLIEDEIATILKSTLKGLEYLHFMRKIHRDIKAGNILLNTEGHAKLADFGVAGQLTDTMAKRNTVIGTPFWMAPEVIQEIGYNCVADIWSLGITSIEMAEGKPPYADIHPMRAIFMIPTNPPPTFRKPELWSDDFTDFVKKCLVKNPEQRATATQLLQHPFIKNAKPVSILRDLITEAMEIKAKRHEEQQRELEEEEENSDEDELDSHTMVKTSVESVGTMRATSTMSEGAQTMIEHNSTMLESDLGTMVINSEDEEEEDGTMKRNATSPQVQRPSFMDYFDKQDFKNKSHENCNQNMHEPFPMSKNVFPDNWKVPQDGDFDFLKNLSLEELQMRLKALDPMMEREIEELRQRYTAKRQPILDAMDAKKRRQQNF
How it was run: as §1

Aurora B = Aurora B (Homo sapiens, UniProt Q96GD4); conditions: for activity at 100 µM: 100 μM compound, 20 μM ATP, read-out: Kinase activity, % of activity in the absence of inhibitor
How it was run: as §1

EPH-B2 = target: T3, EPH-B2 (Homo sapiens, UniProt P29323); conditions: 100 μM compound, 20 μM ATP; read-out: Kinase activity, % of activity in the absence of inhibitor
T3 sequence (P29323 19-1055): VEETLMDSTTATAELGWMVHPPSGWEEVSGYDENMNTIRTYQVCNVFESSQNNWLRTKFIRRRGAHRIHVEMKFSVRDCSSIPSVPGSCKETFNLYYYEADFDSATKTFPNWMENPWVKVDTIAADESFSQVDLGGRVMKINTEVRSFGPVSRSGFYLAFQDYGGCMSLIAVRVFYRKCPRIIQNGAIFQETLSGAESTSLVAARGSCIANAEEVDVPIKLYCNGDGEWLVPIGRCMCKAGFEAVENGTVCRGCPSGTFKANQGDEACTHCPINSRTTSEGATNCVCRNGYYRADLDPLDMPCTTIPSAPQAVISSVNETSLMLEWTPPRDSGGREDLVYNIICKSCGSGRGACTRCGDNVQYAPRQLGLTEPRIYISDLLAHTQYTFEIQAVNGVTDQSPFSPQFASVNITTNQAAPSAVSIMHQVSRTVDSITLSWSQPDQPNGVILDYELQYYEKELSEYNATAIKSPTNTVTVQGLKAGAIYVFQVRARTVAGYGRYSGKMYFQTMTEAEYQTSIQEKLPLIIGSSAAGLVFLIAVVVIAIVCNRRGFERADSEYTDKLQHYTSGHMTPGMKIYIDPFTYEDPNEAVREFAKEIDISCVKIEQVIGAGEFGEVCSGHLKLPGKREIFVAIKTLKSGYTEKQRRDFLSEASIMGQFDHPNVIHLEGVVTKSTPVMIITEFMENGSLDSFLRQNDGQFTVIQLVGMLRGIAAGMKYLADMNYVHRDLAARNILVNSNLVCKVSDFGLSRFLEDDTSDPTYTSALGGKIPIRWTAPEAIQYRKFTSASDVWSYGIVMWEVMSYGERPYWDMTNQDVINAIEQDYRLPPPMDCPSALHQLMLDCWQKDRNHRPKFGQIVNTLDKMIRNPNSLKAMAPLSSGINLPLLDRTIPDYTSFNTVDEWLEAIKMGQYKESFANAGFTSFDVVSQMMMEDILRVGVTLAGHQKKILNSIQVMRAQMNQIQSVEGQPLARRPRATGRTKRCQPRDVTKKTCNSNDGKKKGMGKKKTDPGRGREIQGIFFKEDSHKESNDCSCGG
How it was run: as §1

PIM2 = PIM2 (Homo sapiens, UniProt Q9P1W9); conditions: 100 μM compound, 5 μM ATP; read-out: Kinase activity, % of activity in the absence of inhibitor
How it was run: as §1

Sequence of PIM2 (Q9P1W9 whole entry): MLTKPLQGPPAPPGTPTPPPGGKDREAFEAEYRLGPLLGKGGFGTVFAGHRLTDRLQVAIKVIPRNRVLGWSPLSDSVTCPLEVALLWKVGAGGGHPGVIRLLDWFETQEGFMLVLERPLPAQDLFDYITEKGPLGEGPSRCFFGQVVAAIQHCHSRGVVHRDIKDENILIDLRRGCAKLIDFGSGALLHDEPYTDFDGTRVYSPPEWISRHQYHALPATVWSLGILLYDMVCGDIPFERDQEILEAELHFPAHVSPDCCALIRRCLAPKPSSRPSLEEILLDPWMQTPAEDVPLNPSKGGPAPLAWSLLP
Sequence of Aurora B (Q96GD4 whole entry): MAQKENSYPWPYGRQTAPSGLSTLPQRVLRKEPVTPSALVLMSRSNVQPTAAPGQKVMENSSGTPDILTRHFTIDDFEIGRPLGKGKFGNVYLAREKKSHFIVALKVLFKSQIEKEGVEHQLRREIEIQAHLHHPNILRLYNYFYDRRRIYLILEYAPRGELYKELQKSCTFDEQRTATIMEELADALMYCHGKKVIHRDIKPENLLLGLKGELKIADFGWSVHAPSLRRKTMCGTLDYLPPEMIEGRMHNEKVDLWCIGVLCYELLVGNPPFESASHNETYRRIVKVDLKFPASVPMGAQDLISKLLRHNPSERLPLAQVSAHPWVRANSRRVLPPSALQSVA

Row | Compound | activity at 100 µM (TTK) [%] | activity at 100 µM (MST2) [%] | activity at 100 µM (Aurora B) [%] | inhibition at 100 µM (Aurora B; at 100 μM compound) [%] | activity at 100 µM (EPH-B2) [%] | activity at 100 µM (PIM2) [%]
1 | CC(C)(COP(=O)(O)OP(=O)(O)OC[C@H]1O[C@@H](n2cnc3c(N)ncnc32)[C@H](O)[C@@H]1OP(=O)(O)O)[C@@H](O)C(=O)NCCC(=O)NCCS [CoA, Coenzyme A] | 101 | 119 | 54.3 | 46 | 117 | 111
2 | Nc1ncnc2c1ncn2C1OC(COP(=O)(O)OP(=O)(O)O)C(O)C1O (stereo not shown) [ADP] | 54.7 | 40.5 | 47.8 |  | 14.3 | 9.8
3 | CC(C)(COP(=O)(O)OP(=O)(O)OCC1OC(n2cnc3c(N)ncnc32)C(O)C1O)C(O)C(=O)NCCC(=O)NCCS (stereo not shown) [dpCoA, dephospho-CoA] | 75.8 | 72.5 | 55.1 |  | 91.1 | 62.9
